The values below come from patent EP4772514A1, “MACROCYCLIC COMPOUNDS, PREPARATION METHOD THEREFOR, AND USE THEREOF” (Genfleet Therapeutics (Shanghai) Inc., priority 2023, dated 2025).

Read-outs that look alike come from different tables or passages of the source.

One experiment relates to NCI-H441 cells. Kind of experiment: 3D cell proliferation assay (CellTiter Glo-3D) in NCI-H441 cells. Type of experiment: cell-based. The settings on record: NCI-H441, human lung cancer cell strain, KRAS G12V mutation, 3D culture, 2% FBS, 5 days, read-out: H441 AP IC50. An excerpt: MIA PaCa-2 cells were purchased from ATCC, Cat. No. CRL-1420; AsPC-1 cells were purchased from ATCC, Cat. No. CRL-1682; NCI-H441 cells were purchased from ATCC, Cat. No. HTB-174; NCI-H1975 cells were purchased from ATCC, Cat. No. CRL-5908; DMEM medium was purchased from Gibco, Cat. No. 11995-065; RPMI-1640 medium was purchased from Gibco, Cat. No. 11875-093; FBS was purchased from Gibco, Cat. No. 10099-141C; penicillin/streptomycin double-antibiotic solution (PS) was purchased from Gibco, Cat. No. 15140-122; Horse serum was purchased from Gibco, Cat. No. 16050130; trypsin (containing EDTA) was purchased from Gibco, Cat. No. 25200-072; DMSO was purchased from VWRAMRESCO, Cat. No. 0231-500ML; 384-well cell culture plates were purchased from Corning, Cat. No. 3830; white-bottomed, opaque 384-well assay plates were purchased from Corning, Cat. No. 3570; CellTiter Glo-3D kit was purchased from Promega, Cat. No. G9683; cell counter was purchased from CHEMOMETEC, model: NC-200; microplate reader was purchased from PerkinElmer, model: EnVision.
MIA PaCa-2, a human pancreatic cancer cell strain endogenously containing a KRAS^G12Cmutation, was cultured in a complete medium containing DMEM + 10% FBS + 2.5% Horse serum + 1% PS. AsPC-1, a human pancreatic cancer cell strain endogenously containing a KRAS^G12D mutation, was cultured in a complete medium containing RPMI-1640 + 10% FBS + 1% PS. NCI-H441 cells, a human lung cancer cell strain endogenously containing a KRAS^G12V mutation, were cultured in a complete medium containing RPMI-1640 + 10% FBS + 1% PS. NCI-H1975, a KRAS wild-type human lung cancer cell strain whose cell proliferation […], was cultured in a complete medium containing RPMI-1640 + 10% FBS + 1% PS.
The cells were digested with trypsin (containing EDTA), collected in their respective low-serum complete media containing 2% FBS (for MIA Paca-2 cell culture: DMEM + 2% FBS + 0.5% Horse serum + 1% PS), and counted. After the cell density was adjusted as required, MIA PaCa-2 cells (200 cells/well), AsPC-1 cells (800 cells/well), NCI-H441 cells (800 cells/well), or NCI-H1975 cells (400 cells/well) were seeded into a 384-well cell culture plate, with the volume of the medium in each well being 45 µL. The cell culture plate was incubated in an incubator at 37 °C with 5% CO2 overnight. A series of 3.16-fold gradient dilutions of a 1000× compound stock solution were prepared with DMSO, and then diluted 100-fold with the complete medium containing 2% FBS described above to give 10× compound stock solutions. On the day after cell seeding, 5 µL of the 10× compound stock solution was added to each cell culture well. As a result, the final concentration of the compound in the cell culture well became 1×, and the DMSO content in the well was 0.1%. In addition to the compound-treated wells described above, cell-containing DMSO control wells (with 5 µL of the complete medium containing 1% DMSO added to each well) and cell-free medium control wells (containing 50 µL of the complete medium with 2% FBS) were also set. The culture plate was incubated in an incubator at 37 °C with 5% CO2 for another 5 days, and then 30 µL of CellTiter-Glo working solution was added to each well. The mixture was well mixed, incubated for 30 min, left to stand at room temperature for 30 min, and then transferred to a white-bottomed, opaque 384-well assay plate at 40 µL/well. The chemiluminescence values (RLU) were measured using a microplate reader, and the cell proliferation inhibition rate for each well was calculated: IR(%) = (RLUDMSO - RLUcompound)/(RLUDMSO - RLUblank) × 100%, where RLUDMSO is the average RLU signal value from the DMSO control well samples, RLUblank is the average RLU signal value from the medium control well samples, and RLUcompound is the RLU signal value from the compound-treated well samples. […]
(In ATP-based viability assays light output follows the ATP content of the culture.)

The subject of another experiment is p-ERK. Kind of experiment: Cell p-ERK assay (HTRF, Advance ERK phospho-T202/Y204 kit) in NCI-H441 cells. Type of experiment: cell-based. The settings on record: NCI-H441, human non-small cell lung cancer cell strain, KRAS G12V mutation, 3 h compound incubation. Here is the method:
AsPC-1 cells were purchased from ATCC, Cat. No. CRL-1682; NCI-H441 cells were purchased from ATCC, Cat. No. HTB-174; RPMI-1640 medium was purchased from Gibco, Cat. No. 11875-093; FBS was purchased from Gibco, Cat. No. 10099-141C; penicillin/streptomycin double-antibiotic solution (PS) was purchased from Gibco, Cat. No. 15140-122; trypsin (containing EDTA) was purchased from Gibco, Cat. No. 25200-072; DMSO was purchased from VWRAMRESCO, Cat. No. 0231-500ML; 96-well cell culture plates were purchased from Corning, Cat. No. 3599; white-bottomed, opaque 96-well plates were purchased from Cisbio, Cat. No. 66PL96025; Advance ERK phospho-T202/Y204 kit was purchased from Cisbio, Cat. No. 64AERPEH; cell counter was purchased from CHEMOMETEC, model: NC-200; microplate reader was purchased from PerkinElmer, model: EnVision.
AsPC-1, a human pancreatic cancer cell strain endogenously containing a KRAS^G12D mutation, was cultured in a complete medium containing RPMI-1640 + 10% FBS + 1% PS. NCI-H441, a human non-small cell lung cancer cell strain endogenously containing a KRAS^G12V mutation, was cultured in a complete medium containing RPMI-1640 + 10% FBS + 1% PS.
The cells were digested with trypsin (containing EDTA), collected in their corresponding complete media, and counted. The density of the cell suspensions was adjusted with their corresponding complete media, and AsPC-1 cells (10000 cells/well) or NCI-H441 cells (20000 cells/well) were seeded into a 96-well cell culture plate, with the volume of the medium in each well being 80 µL. The cell culture plate was incubated in an incubator at 37 °C with 5% CO2 overnight. A series of 3.16-fold gradient dilutions of a 1000× compound stock solution were prepared with DMSO, and then diluted 200-fold with the complete medium described above to give 5× compound stock solutions. On the day after cell seeding, 20 µL of the 5× compound stock solution was added to each cell culture well. As a result, the final concentration of the compound in the cell culture well became 1×, and the DMSO content in the well was 0.1%. In addition to the compound-treated wells described above, cell-containing DMSO control wells were also set. A complete medium containing 0.5% DMSO was added at 20 µL/well. After the mixture was well mixed, the culture plate was incubated in the incubator at 37 °C with 5% CO2 for another 3 h. The medium was then removed from the culture wells, and 50 µL of cell lysis buffer (from Advance ERK phospho-T202/Y204 kit) was added to each well. The mixture was well mixed, incubated for 30 min, and then transferred to a white-bottomed, opaque 96-well assay plate at 16 µL/well, and separately, 16 µL of cell lysis buffer was added to additional wells (serving as blank wells) in the assay plate. After the transfer was completed, 4 µL of p-ERK HTRF antibody mixture (from Advance ERK phospho-T202/Y204 kit) was added to each well of the assay plate, followed by a 4-hour incubation. The HTRF signal values (RLU) were then measured using a microplate reader, and the inhibition rate of the compound against p-ERK levels was calculated as follows: IR(%) = (RLUDMSO - RLUcompound)/(RLUDMSO - RLUblank) × 100%, where RLUDMSO is the average HTRF signal value from the DMSO control well samples, RLU is the average HTRF signal value from the blank well samples, and RLUcompound is the HTRF signal value from the compound-treated well samples. Using an XLfit software, the IR(%) values were plotted against the logarithm of the compound concentrations, and the dose-response curves were fitted using the four-parameter method to calculate the IC50 values.
In general terms: In TR-FRET formats the signal depends on donor and acceptor labels being close together.

Regarding `CCn1nc2c(c1-c1cc(C#CCN3CCS(=O)(=O)CC3)cnc1[C@H](C)OC)CC(C)(C)COC(=O)[C@@H]1CCCN(N1)C(=O)[C@@H](NC(=O)[C@@H](OCc1ccccc1)C(C)C)Cc1nc(cs1)/C=C/2` (atropisomer, axis not shown; (Ra)) [Compound Z46, (2S)-2-(benzyloxy)-N-((4^2Z,8^3S,2E,6S)-1^5-(Ra)-(5-(3-(1,1-dioxidothiomorpholino)prop-1-yn-1-yl)-2-((S)-1-methoxyethyl)pyridin-3-yl)-1^1-ethyl-12,12-dimethyl-7,9-dioxo-8^1,8^2,8^3,8^4,8^5,8^6-hexahydro-1^1H-10-oxa-4(4,2)-thiazola-8(1,3)-pyridazina-1(3,4)-pyrrolacyclotridecaphan-2-en-6-yl)-3-methylbutanamide], the IC50 with NCI-H441 cells (Homo sapiens, NCI-H441, 120 h) worked out at 176 nM; in the experiment on p-ERK (Homo sapiens, NCI-H441, 3 h) it was 168 nM.

For the compound `CCn1nc2c(c1-c1cc(C#CCN3CCS(=O)(=O)CC3)cnc1[C@H](C)OC)CC(C)(C)COC(=O)[C@@H]1CCCN(N1)C(=O)[C@@H](NC(=O)[C@H](C(C)C)N(C)C(=O)COc1ccccc1)Cc1nc(cs1)/C=C/2` (atropisomer, axis not shown; (Ra)) [Compound Z57, (2S)-N-((4^2Z,8^3S,2E,6S)-(Ra)-1^5-(5-(3-(1,1-dioxidothiomorpholino)prop-1-yn-1-yl)-2-((S)-1-methoxyethyl)pyridin-3-yl)-1^1-ethyl-12,12-dimethyl-7,9-dioxo-8^1,8^2,8^1,8^4,8^1,8^6-hexahydro-1^1H-10-oxa-4(4,2)-thiazola-8(1,3)-pyridazina-1(3,4)-pyrazolocyclotridec-2-en-6-yl)-3-methyl-2-(N-methyl-2-phenoxyacetamido)butanamide], the IC50 in the experiment with NCI-H441 cells (Homo sapiens, NCI-H441, 120 h) is 245 nM; in the experiment on p-ERK (Homo sapiens, NCI-H441, 3 h) it was 88 nM.

Consider `CCn1nc2c(c1-c1cc(C#CCN3CCS(=O)(=O)CC3)cnc1[C@H](C)OC)CC(C)(C)COC(=O)[C@@H]1CCCN(N1)C(=O)[C@@H](NC(=O)[C@H](C(C)C)N(C)c1ccccc1)Cc1nc(cs1)/C=C/2` (atropisomer, axis not shown; (Ra)) [Compound Z51, (2S)-N-((4^2Z,8^3S,2E,6S)-(Ra)-1^5-(5-(3-(1,1-dioxidothiomorpholine)prop-1-yn-1-yl)-2-((S)-1-methoxyethyl)pyridin-3-yl)-1^1-ethyl-12,12-dimethyl-7,9-dioxo-8^1,8^2,8^3,8^4,8^5,8^6-hexahydro-1^1H-10-oxa-4(4,2)-thiazola-8(1,3)-pyridazina-1(3,4)-pyrazolecyclotridec-2-en-6-yl)-3-methyl-2-(methyl(phenyl)amino)butanamide], for which the IC50 in the experiment on NCI-H441 cells (Homo sapiens, NCI-H441, 120 h) came to 3.46 nM; in the experiment with p-ERK (Homo sapiens, NCI-H441, 3 h), 3.02 nM.

In the case of `CCn1nc2c(c1-c1cc(C#CCN3CCS(=O)(=O)CC3)cnc1[C@H](C)OC)CC(C)(C)COC(=O)[C@@H]1CCCN(N1)C(=O)[C@@H](NC(=O)[C@@H](NC)C(C)C)Cc1nc(cs1)/C=C/2` (atropisomer, axis not shown; (Ra)) [Compound Z56, (2S)-N-((4^2Z,8^3S,2E,6S)-1^5-(Ra)-(5-(3-(1,1-dioxidothiomorpholino)prop-1-yn-1-yl)-2-((S)-1-methoxyethyl)pyridin-3-yl)-1^1-ethyl-12,12-dimethyl-7,9-dioxo-8^1,8^2,8^3,8^4,8^5,8^6-hexahydro-1^1H-10-oxa-4(4,2)-thiazola-8(1,3)-pyridazina-1(3,4)-pyrrolacyclotridecaphan-2-en-6-yl)-3-methyl-2-(methylamino)butanamide], the IC50 was found to be 196 nM in the experiment with NCI-H441 cells (Homo sapiens, NCI-H441, 120 h) and 126 nM with p-ERK (Homo sapiens, NCI-H441, 3 h).

As for `CCn1nc2c(c1-c1cc(C#CCN3CCS(=O)(=O)CC3)cnc1[C@H](C)OC)CC(C)(C)COC(=O)[C@@H]1CCCN(N1)C(=O)[C@@H](NC(=O)[C@@H]1CCCN1Cc1ccccc1)Cc1nc(cs1)/C=C/2` (atropisomer, axis not shown; (Ra)) [Compound Z48, (2S)-1-benzyl-N-((4^2Z,8^3S,2E,6S)-(Ra)-1^5-(5-(3-(1,1-dioxothiomorpholine)-1-prop-1-yn-1-yl)-2-((S)-1-methoxyethyl)pyridin-3-yl)-1^1-ethyl-12,12-dimethyl-7,9-dioxo-8^1,8^2,8^3,8^4,8^5,8^6-hexahydro-1^1H-10-oxa-4(4,2)-thiazola-8(1,3)-pyridazina-1(3,4)-pyrrolacyclotridecaphan-2-en-6-yl)pyrrolidine-2-carboxamide], the IC50 in the experiment on NCI-H441 cells (120 h) is 123 nM; with p-ERK, 78.6 nM.

The IC50 is the concentration at which inhibition is half-maximal.
